The target in the assay is T1, human Flt-3 (Homo sapiens, UniProt P36888).
T1 construct: expresses the amino acid region amino acids 563-993 of the intra-cytoplasmic kinase domains of human Flt-3; made in house; host or cells: Sf9 insect cells (baculovirus, pFbacG01 donor vector)
T1 sequence (P36888 563-993): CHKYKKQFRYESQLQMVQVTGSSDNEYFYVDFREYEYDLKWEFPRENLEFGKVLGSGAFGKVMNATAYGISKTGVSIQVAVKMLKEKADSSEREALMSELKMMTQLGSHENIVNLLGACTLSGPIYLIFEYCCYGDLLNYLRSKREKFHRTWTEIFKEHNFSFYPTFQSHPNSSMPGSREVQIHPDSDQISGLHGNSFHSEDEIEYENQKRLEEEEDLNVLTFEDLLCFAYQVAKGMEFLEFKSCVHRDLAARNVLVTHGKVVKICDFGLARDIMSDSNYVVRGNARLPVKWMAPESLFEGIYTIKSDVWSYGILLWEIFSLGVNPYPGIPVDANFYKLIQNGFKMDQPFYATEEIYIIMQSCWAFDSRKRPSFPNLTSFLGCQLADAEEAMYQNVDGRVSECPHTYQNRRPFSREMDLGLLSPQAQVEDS
The experiment in a line: Tyrosine protein kinase assay with purified GST-Flt-3 (33P incorporation). The format is biochemical. Particulars: at a 1.0 micromolar concentration. Here is the method: ATP into appropriate substrates.
The coding sequences for the cytoplasmic domain of Flt-3 was amplified by PCR from human c-DNA libraries (Clontech). The amplified DNA fragments and the pFbacG01 vector were made compatible for ligation by digestion with BamH1 and Hind III. […] The production of the viruses, the expression of proteins in Sf9 cells and the purification of the GST-fused proteins were performed as following:
(Generation of Bac- to Bac GST-fusion vectors); pFbacG01, pFbacGST2T and pFbacGSTx3 Bac-to-Bac™ donor vectors were generated from pAcG1, pAcG2T and pAcG3X respectively, which facilitate the expression of GST-fusion proteins with the possibility of cleavage with thrombin (pFbacGT2) or factor Xa (pFbacGSTx3) while pFbacG01 expresses no proteolytic cleavage site. These were generated in house by isolation of the DNA fragment containing the gene for GST with the C-terminal protease and restriction sites by restriction enzyme digestion of the relevant PharMingen baculovirus donor vector with EcoRV and EcoRI. This EcoRV/EcoRI fragment was ligated into the pFastBac1 vector which had been restriction digested with BamHI, blunt-ended by Klenow reaction and subsequently digested with EcoRI to generate a blunt-ended/EcoRI vector. (Production of virus); Transfer vectors containing the kinase domains were transfected into the DH10Bac cell line (GIBCO) and plated on selective agar plates. Colonies without insertion of the fusion sequence into the viral genome (carried by the bacteria) are blue. Single white colonies were picked and viral DNA (bacmid) isolated from the bacteria by standard plasmid purification procedures. Sf9 cells or Sf21 cells were then transfected in 25 cm^2 flasks with the viral DNA using Cellfectin reagent. (Determination of small scale protein expression in Sf9 cells); Virus containing media was collected from the transfected cell culture and used for infection to increase its titer. Virus containing media obtained after two rounds of infection was used for large-scale protein expression. For large-scale protein expression 100 cm^2 round tissue culture plates were seeded with 5×10^7 cells/plate and infected with 1 mL of virus-containing media (approx. 5 MOIs). After 3 days the cells were scraped off the plate and centrifuged at 500 rpm for 5 min. Cell pellets from 10-20, 100 cm^2 plates, were resuspended in 50 mL of ice-cold lysis buffer (25 mMTris-HCl, pH7.5, 2 mMEDTA, 1% NP-40, 1 mM DTT, 1 mMP MSF). The cells were stirred on ice for 15 min and then centrifuged at 5000 rpms for 20 min.
ATP 0.1 μCi). […] ATP into appropriate substrates. […] Subsequently, 40 μL of the reaction mixture were transferred onto Immobilon-PVDF membrane (Millipore, Bedford, Mass., USA) previously soaked for 5 min with methanol, rinsed with water, then soaked for 5 min with 0.5% H3PO4 and mounted on vacuum manifold with disconnected vacuum source. After spotting all samples, vacuum was connected and each well rinsed with 200 μL 0.5% H3PO4. Membranes were removed and washed 4× on a shaker with 1.0% H3PO4, once with ethanol. Membranes were counted after drying at ambient temperature, mounting in Packard TopCount 96-well frame, and addition of 10 μL/well of Microscint™ (Packard). […] One unit of protein kinase activity is defined as 1 nmole of ^33P ATP transferred from [γ^33P] ATP to the substrate protein per minute per mg of protein at 37° C.

For “(9a,10b,11b,13a)-11-[[N-Acetyl-1-deoxy-6-O-[(4-methylphenyl)sulfonyl]muramoyl]methylamino]-2,3,10,11,12,13-hexahydro-10-methoxy-9-methyl-, 9,13-epoxy-1H,9H-diindolo[1,2,3-gh:3′,2′,1′-lm]pyrrolo[3,4-j][1,7]benzodiazonin-1-one [149622-70-8]”, the “Flt3 Inhibition (percent inhibition of Flt3 kinase activity)” value was determined as 67%. For “[9S-(9a,10b,13a)]-2,3,9,10,12,13-Hexahydro-10-hydroxy-9-methyl-9,13-epoxy-1H,11H-diindolo[1,2,3-gh:3′,2′,1′-lm]pyrrolo[3,4-j][1,7]benzodiazonine-1,11-dione, 11-oxime [187457-73-4]” the value was 89%; for `COC1C(N(C)C(=O)c2ccc(F)cc2)CC2OC1(C)n1c3ccccc3c3c4c(c5c6ccccc6n2c5c31)C(=O)NC4` (stereo not drawn) [120685-44-1, (9a,10b,11b,13a)-4-Fluoro-N-(2,3,10,11,12,13-hexahydro-10-methoxy-9-methyl-1-oxo-9,13-epoxy-1H,9H-diindolo[1,2,3-gh:3′,2′,1′-lm]pyrrolo[3,4-j][1,7]benzodiazonin-11-yl)-N-methyl-benzamide], 55%; for “(9a,10b,11b,13a)-11-[[N-Acetyl-6-azido-6-deoxy-1-O-(phenylmethyl)-a-muramoyl]methylamino]-2,3,10,11,12,13-hexahydro-10-methoxy-9-methyl-,9,13-epoxy-1H,9H-diindolo[1,2,3-gh:3′,2′,1′-lm]pyrrolo[3,4-j][1,7]benzodiazonin-1-one [149622-42-4]”, 61%.

As for `COC1C(N(C)C(=O)C(C)OC2CCOCC2)CC2OC1(C)n1c3ccccc3c3c4c(c5c6ccccc6n2c5c31)C(=O)NC4` (stereo not drawn) [160251-50-3, [9S-[9a,10b,11b(S*),13a]]-N-(2,3,10,11,12,13-Hexahydro-10-methoxy-9-methyl-1-oxo-9,13-epoxy-1H,9H-diindolo[1,2,3-gh:3′,2′,1′-lm]pyrrolo[3,4-j][1,7]benzodiazonin-11-yl)-N-methyl-2-[(tetrahydro-2H-pyran-4-yl)oxy]-propanamide], the “Flt3 Inhibition (percent inhibition of Flt3 kinase activity)” value is 89%.

For `COC1C(N(C)C(=O)c2cc([N+](=O)[O-])cc([N+](=O)[O-])c2)CC2OC1(C)n1c3ccccc3c3c4c(c5c6ccccc6n2c5c31)C(=O)NC4` (stereo not drawn) [120685-18-9, [9S-(9a,10b,11b,13a)]-N-(2,3,10,11,12,13-Hexahydro-10-methoxy-9-methyl-1-oxo-9,13-epoxy-1H,9H-diindolo[1,2,3-gh:3′,2′,1′-lm]pyrrolo[3,4-j][1,7]benzodiazonin-11-yl)-N-methyl-3,5-dinitro-benzamide], the “Flt3 Inhibition (percent inhibition of Flt3 kinase activity)” value was determined as 63%. As for `CO[C@@H]1[C@H](N(C)C(=O)C(C)(C)OC2CCOCC2)C[C@H]2O[C@]1(C)n1c3ccccc3c3c4c(c5c6ccccc6n2c5c31)C(=O)NC4` [160251-55-8, [9S-(9a,10b,11b,13a)]-N-(2,3,10,11,12,13-Hexahydro-10-methoxy-9-methyl-1-oxo-9,13-epoxy-1H,9H-diindolo[1,2,3-gh:3′,2′,1′-lm]pyrrolo[3,4-j][1,7]benzodiazonin-11-yl)-N,2-dimethyl-2-[(tetrahydro-2H-pyran-4-yl)oxy]-propanamide], the “Flt3 Inhibition (percent inhibition of Flt3 kinase activity)” value was 85%. The same measure for “(9a,10b,11b,13a)-11-[[N-Acetyl-4,6-O-(1-methylethylidene)-1-O-(phenylmethyl)-a-isomuramoyl]methylamino]-2,3,10,11,12,13-hexahydro-9-methyl-10-methoxy-9,13-epoxy-1H,9H-diindolo[1,2,3-gh:3′,2′,1′-lm]pyrrolo[3,4-j][1,7]benzodiazonin-1-one [149622-59-3]”: 77%; for “11-[[N-Acetyl-1-O-methyl-4,6-O-(phenylmethylene)-a-normuramoyl]methylamino]-2,3,10,11,12,13-hexahydro-10-methoxy-9-methyl-9,13-epoxy-1H,9H-diindolo[1,2,3-gh:3′,2′,1′-lm]pyrrolo[3,4-j][1,7]benzodiazonin-1-one [149622-43-5]”: 66%; for “[9S-(9a,10b,11b,13a)]-(2,3,10,11,12,13-Hexahydro-10-methoxy-9-methyl-1-oxo-9,13-epoxy-1H,9H-diindolo[1,2,3-gh:3′,2′,1′-lm]pyrrolo[3,4-j][1,7]benzodiazonin-11-yl)methyl-carbamic acid, 2-methylpropyl ester [154590-03-1]”: 49%. The same measure for `C=CCNC(=S)N(C)C1CC2OC(C)(C1OC)n1c3ccccc3c3c4c(c5c6ccccc6n2c5c31)C(=O)NC4` (stereo not drawn) [120685-39-4, (9a,10b,11b,13a)-N-(2,3,10,11,12,13-Hexahydro-10-methoxy-9-methyl-1-oxo-9,13-epoxy-1H,9H-diindolo[1,2,3-gh:3′,2′,1′-lm]pyrrolo[3,4-j][1,7]benzodiazonin-11-yl)-N-methyl-N′-2-propenyl-thiourea]: 93%; for `COC1C(N(C)C(=O)c2ccc(C(=O)[O-])cc2)CC2OC1(C)n1c3ccccc3c3c4c(c5c6ccccc6n2c5c31)C(=O)NC4.[Na+]` (stereo not drawn) [120751-44-2, [9S-(9a,10b,11b,13a)]-4-[[(2,3,10,11,12,13-Hexahydro-10-methoxy-9-methyl-1-oxo-9,13-epoxy-1H,9H-diindolo[1,2,3-gh:3′,2′,1′-lm]pyrrolo[3,4-j][1,7]benzodiazonin-11-yl)methylamino]carbonyl]-benzoic acid, monosodium salt]: 90%; for `COC1C([N+](C)(C)C)CC2OC1(C)n1c3ccccc3c3c4c(c5c6ccccc6n2c5c31)C(=O)NC4.[I-]` (stereo not drawn) [120685-26-9, [9S-(9a,10b,11b,13a)]-2,3,10,11,12,13-Hexahydro-10-methoxy-N,N,N,9-tetramethyl-1-oxo-9,13-epoxy-1H,9H-diindolo[1,2,3-gh:3′,2′,1′-lm]pyrrolo[3,4-j][1,7]benzodiazonin-11-aminium iodide]: 97%. For `COC(=O)CN(C)C1CC2OC(C)(C1OC)n1c3ccccc3c3c4c(c5c6ccccc6n2c5c31)C(=O)NC4` (stereo not drawn) [120685-21-4, [9S-(9a,10b,11b,13a)]-N-(2,3,10,11,12,13-Hexahydro-10-methoxy-9-methyl-1-oxo-9,13-epoxy-1H,9H-diindolo[1,2,3-gh:3′,2′,1′-lm]pyrrolo[3,4-j][1,7]benzodiazonin-11-yl)-N-methyl-glycine, methyl ester] the value was 82%. For “(2,3,10,11,12,13-hexahydro-10-methoxy-9-methyl-1-oxo-9,13-epoxy-1H,9H-diindolo[1,2,3-gh:3′,2′,1′-lm]pyrrolo[3,4-j][1,7]benzodiazonin-11-yl)methyl-carbamic acid, phenylmethyl ester [159404-67-8]”, the “Flt3 Inhibition (percent inhibition of Flt3 kinase activity)” value turned out to be 64%.

The record behind these values is patent US8222244B2, “Staurosporine derivatives as inhibitors of FLT3 receptor tyrosine kinase activity” (Novartis AG, priority 2001, dated 2012).
